Measurements from a melting point compilation (Tetko et al.; mined from patent text by program, amines drawn as free bases though some values may be those of a salt).

`C=C[C@H](O)[C@H](Cc1ccccc1)NC(=O)OC(C)(C)C` showed a melting point of 98 to 100 °C. In the case of `O=C(Cl)c1ccc2c(c1)C(C(F)(F)F)(C(F)(F)F)c1cc(C(=O)Cl)ccc1O2`, the melting point is reported as 216 to 218 °C. `O=C1c2cccc([N+](=O)[O-])c2C(=O)N1CC(=O)N1c2ccccc2N(Cc2ccccc2)C(=O)[C@H]2CCC[C@H]21` (relative stereo) gave a melting point of 238 to 240 °C. Work on `CCOc1cc(OCc2ccc(CN(C)C)o2)cc2c1C(=O)N(COC(=O)c1c(Cl)cccc1Cl)S2(=O)=O` yielded a melting point of 157 to 158 °C. `CN1C(O)=C(c2ccccc2)N=NC1(C)N` (centres undefined) showed a melting point of 91 °C. For `CCCc1c(N)ccc2c(=O)cc(C(=O)OCC)oc12`, the melting point was 84 to 87 °C. Work on `CCNc1nc(C)c(-c2ccnc(Nc3cccc(S(=O)(=O)NCCO)c3)n2)s1` yielded a melting point of 124 to 125 °C. `CCn1c(=O)c2c(nc(/C=C/c3cccc(O)c3O)n2C)n(CC)c1=O` showed a melting point of 242 to 244 °C. Work on `Cn1c2cc(Cl)ccc2c2oc(C(=O)Cl)cc21` yielded a melting point of 154 to 156 °C. `Cc1sc(C)c2c1CCC=C2c1c[nH]cn1` gave a melting point of 179 to 180 °C. With `Oc1ccc(OCCN2CCCCC2)cc1` the melting point was 148 to 150 °C. `CNC(=O)C(Cc1ccc(OC)cc1)NC(=O)C(CC(C)C)C(S)CC(=O)OCc1ccccc1` (centres undefined) gave a melting point of 133 to 135 °C. In the case of `COc1ccccc1Oc1c(NS(=O)(=O)c2ccc(CC(C)C)cc2)nc(-c2ncccn2)nc1OCCOC(N)=O`, the melting point is reported as 138 to 140 °C. `O=C1N(Cc2ccc(C(F)(F)F)o2)c2ccccc2C12COc1cc3c(cc12)CCO3` (centres undefined) gave a melting point of 64 to 65 °C. `O=C(Nc1ccc(Cl)c(Cl)c1)c1c(O)c2ccccc2oc1=O` showed a melting point of 227 to 228 °C. With `CC(=O)Nc1nc2c(Oc3cc(-c4ccc(C(F)(F)F)cc4NC(=O)CC4CCCCC4)ncn3)cccc2s1` the melting point was 288 to 289 °C. `O=C(O)c1cn(-c2ccc(O)cc2)c2c(F)c(F)c(F)cc2c1=O` showed a melting point of over 300 °C. With `Cc1ccc(S(=O)(=O)OCC2Cc3cccc(O)c3O2)cc1` (centres undefined) the melting point was 122 to 125 °C. `CCOC(=O)/C(=N\OCC#N)c1csc(N)n1` showed a melting point of 167 to 168 °C. With `Cc1cc2c(c(O)c1C=O)C(C)(C)CCC2(C)C` the melting point was 91 to 92 °C. `CCOC(=O)CNc1cc(F)ccc1[N+](=O)[O-]` gave a melting point of 194 to 195 °C. `COc1ccc(-c2nc(-c3ccc(Cl)c(Cl)c3)ncc2C(=O)N2CCOCC2)cc1OC` showed a melting point of 181 °C. In the case of `CCOc1ccc(C(=O)N2CCc3nnc(NN)cc3C2)cc1`, the melting point is reported as 171 to 173 °C. In the case of `COc1nc(N2CCOCC2)c(Cl)nc1NS(=O)(=O)c1cccc(Cl)c1Cl`, the melting point is reported as 150 to 151 °C. In the case of `CC(=O)N=c1[nH]c2ccccc2n1CCCN1CCN(C(c2ccccc2)c2ccccc2)CC1`, the melting point is reported as 143 °C. `CNC(=O)CC1CN=C(c2cc3cc(Oc4ccc(S(C)(=O)=O)cn4)cc(OC(COC)COC)c3[nH]2)S1` (centres undefined) gave a melting point of 123 to 125 °C. With `Cc1cc(=O)c(C(=O)Nc2ccccc2Cl)c(C)o1` the melting point was 206 to 207 °C. `Fc1cc(Cl)cnc1Cl` showed a melting point of 38 to 39 °C. `Cc1cccc(C(=O)CCSC(=S)Nc2ccc(Cl)cn2)c1` showed a melting point of 153 °C. `CCOC(=O)Cn1cnc(-c2cc(OC)c(OC)c(OC)c2)c1-c1ccc(C(F)(F)F)cc1` gave a melting point of 129 to 134 °C. Compound `CCCCc1nc2c(N)nc3ccc(OCc4ccccc4)cc3c2n1CCCCNS(C)(=O)=O` has a melting point of 178 to 182 °C. `Cc1nc(-n2cnn(Cc3ccc(F)cc3)c2=O)sc1C(N)=O` showed a melting point of 232 to 233 °C. `C=C(Cc1ccccc1)C(=O)NN1CCNCC1` showed a melting point of 78 °C. With `CN1C(=O)C(c2ccc(OC(F)F)cc2)(c2cccnc2)N=C1N` (centres undefined) the melting point was 173 to 175 °C. `O=C(O)C1CCN(Cc2ccccc2)CC1` gave a melting point of 167 to 168 °C. `COC(=O)c1cc2ccc(OC)cc2o1` showed a melting point of 97 to 98 °C. In the case of `COc1cc2c(cc1OC)C(=O)c1cc3ccccc3cc1C2=O`, the melting point is reported as over 250 °C. `COc1cc(OC)c2c(=O)[nH]c(-c3cc(C)c(CCCN4CCCC4)c(C)c3)nc2c1` gave a melting point of 194 to 196 °C. Work on `CCOC(=O)N1c2ccccc2Sc2cc(O)c3ccccc3c21` yielded a melting point of 205 to 206 °C. Work on `CC(=O)Cc1ccc(-c2noc3cc(Cl)ccc23)cc1` yielded a melting point of 109 to 110 °C. Compound `O=C(Nc1ccc(OC(F)(F)F)cc1)N1CCOC(c2ccc(Br)s2)=N1` has a melting point of 139 to 140 °C. In the case of `CC(C)(Cc1ccc(O)c2ncccc12)[N+](=O)[O-]`, the melting point is reported as 133 to 134 °C. `CC(C)(c1ccc2ncccc2c1)n1nnc2ccc(-c3cnn(CCO)c3)nc21` showed a melting point of 95 to 98 °C. With `COc1cc(-n2ccc(C)n2)ccc1C(=O)N1Cc2ccc(CN(C)C)n2Cc2ccccc21` the melting point was 196 to 198 °C. For `O=C1C=C(NC(=O)C(=O)c2cn(Cc3ccccc3[N+](=O)[O-])c3ccccc23)CO1`, the melting point was 257 to 260 °C. `CCn1nccc1NC(=O)c1ccc(OC)c2oc(COC)cc12` gave a melting point of 97 to 99 °C. `CCOC(=O)Cc1ccc2oc3ccccc3c(=O)c2c1` showed a melting point of 97 to 98 °C. Work on `O=C(Oc1ccc(Oc2ccccc2)cc1)N1CCC(O)CC1` yielded a melting point of 130 to 133 °C. In the case of `O=C(OI(OC(=O)C(F)(F)F)C(F)(F)C(F)(F)C(F)(F)C(F)(F)C(F)(F)C(F)(F)C(F)(F)F)C(F)(F)F`, the melting point is reported as 68 to 70 °C. For `OC(=S)C=Cc1cccc2ccccc12`, the melting point was 102 to 103 °C. `CN1CCC(c2ccccc2)(N2CCCC2)C(O)C1` (centres undefined) gave a melting point of 149 to 151 °C. `CCOC(=O)C(Cc1ccccc1)=NO` gave a melting point of 54 to 55 °C. Work on `CCCCCCCCCCCCOc1cccc2c(OCC(O)CO)cccc12` (centres undefined) yielded a melting point of 143 to 144 °C. Work on `COc1ccc(CCn2ccc3ccc(-c4cccc(C(=O)NCCN(C)C)c4)nc32)cc1OC` yielded a melting point of 97 to 98 °C. With `CONC(=O)Nc1ccc(-c2sc3c(c2CCl)c(=O)n(-c2ccccc2)c(=O)n3Cc2c(F)cccc2F)cc1` the melting point was 217 to 219 °C. With `C#CC(CC(=O)OC)c1ccc(OC)c(OC2CCCC2)c1` (racemic) the melting point was 41 to 42 °C. Work on `COc1cc2c(c3c1OC1(CCCC1)C3)C(c1ccccc1)=NC(C)(C)C2` yielded a melting point of 130 to 131 °C. `COc1cc(Cl)cnc1OCC#Cc1cc(Cl)ccn1` gave a melting point of 129 °C. `N#Cc1cc(F)ccc1O` gave a melting point of 121 to 122 °C. Compound `COc1cc(C)c(CCCCCCCCCC(=O)CCCCCCCCCCCC(=O)O)c(O)c1OC` has a melting point of 63 to 64 °C. Compound `CSc1c(OCC(=O)O)ccc2c3ccccc3n(Cc3ccccc3)c12` has a melting point of 188 to 189 °C. `O=C(Nc1ccccc1)c1cccc(Oc2ccccc2)c1` showed a melting point of 111 to 112 °C. With `CS(=O)(=O)OCC(C(=O)N1CCC(=C2c3ccc(Cl)cc3CCc3cccnc32)CC1)c1ccccc1` (centres undefined) the melting point was 111 to 112 °C. In the case of `Cn1ncc(/C=C/C(=O)Nc2ccc(Cc3nc4ccccc4o3)cc2)c1-c1ccc(F)cc1`, the melting point is reported as 195 to 196 °C. In the case of `COc1ccnc(C(=O)c2[nH]c3cc(Cl)ccc3c2NC(=O)CC(C)C)c1`, the melting point is reported as 162 to 163 °C. With `OCc1cn(-c2ccccc2)nc1-c1ccc(Cl)cc1` the melting point was 141 to 142 °C. `CN(C)S(=O)(=O)c1ccc2c(c1)CC(Br)C2=O` (centres undefined) gave a melting point of 115 °C. `O=C(Oc1cccc2cnccc12)c1cc2ccccc2oc1=O` showed a melting point of 190 to 193 °C. `O=C(c1ccc(F)cc1)N1CCCC(c2nc(-c3cccc(F)c3)no2)C1` (centres undefined) gave a melting point of 86 to 89 °C. Compound `O=C(COc1cc(Cl)c(Cl)c([N+](=O)[O-])c1)c1ccccc1` has a melting point of 118 to 126 °C. In the case of `Fc1ccc(-n2ccc3cc(OCCCCCCCBr)ccc32)cc1`, the melting point is reported as 63 to 65 °C. In the case of `C#CCNC1(c2ccccc2)c2ccccc2Oc2ccccc21`, the melting point is reported as 116 to 118 °C. With `CC(C)(C)c1cc(NC(=O)NCCCl)cc(C(C)(C)C)c1O` the melting point was 169 to 171 °C. With `Cc1c(NC(=O)c2ccc(-c3ccc4c(c3)OCO4)cc2F)ccc2cc(CN3CCCC3)cnc12` the melting point was 181 to 182 °C. Compound `CCOC(=O)c1sc(SC)c(C(=O)CC)c1C` has a melting point of 114 to 115 °C. `CC(=O)N(C(C)C(=O)NC(C)C(=O)OC(C)(C)C)C(CO)c1ccccc1` (centres undefined) gave a melting point of 38 to 40 °C. Compound `CC(C)c1cccc(C(C)C)c1NC(=O)C1CC2=C(CCCCCCCCCC2)C1=O` (centres undefined) has a melting point of 225 to 229 °C. `CCS(=O)(=O)Nc1c(C)c(C)cc2nc(OC)c(OC)nc12` gave a melting point of 201 to 203 °C. In the case of `CN1C(=O)CCC2(C)c3ccc(C(=O)c4ccccc4Cl)cc3CCC12` (centres undefined), the melting point is reported as 105 to 115 °C. With `CC(=O)NC[C@H]1CN(c2ccc(N3CCC(O)(CO)CC3)c(F)c2)C(=O)O1` the melting point was 98 to 100 °C. `CCn1c(=O)c(Oc2ccc(F)cc2F)cc2cnc(S(C)(=O)=O)nc21` showed a melting point of 128 to 129 °C. `CC(C)(C)c1ccc(N2CCCN(c3cc[nH]c(=S)c3C#N)CC2)cc1` gave a melting point of 257 to 258 °C. `CC(=O)Oc1ccc(CC(CCC(=O)O)N2C(=O)c3ccccc3C2=O)cc1` (centres undefined) showed a melting point of 142 to 144 °C. `O=[N+]([O-])c1cc(I)ccc1Nc1cccc(-c2cncnc2)c1` showed a melting point of 214 to 217 °C. For `Cc1cc(Cl)nc2ccc(Cn3ccnc3)cc12`, the melting point was 121 °C. For `CC(C)(C)OC(=O)N[C@@H](Cc1ccc2ccccc2c1)C(=O)OCc1ccccc1`, the melting point was 90 to 91 °C. Work on `N#Cc1cc([N+](=O)[O-])c(N)cc1F` yielded a melting point of 197 to 199 °C. In the case of `O=C1c2c(-c3ccccc3)c3ccccc3c(=O)n2CCN1Cc1cc(C(F)(F)F)cc(C(F)(F)F)c1`, the melting point is reported as 194 to 196 °C. Work on `CCCCc1nc2c(N)nc3ccccc3c2n1CCCNS(=O)(=O)c1cccc2c(N(C)C)cccc12` yielded a melting point of 216 to 218 °C. Work on `COc1cc(/C=C/c2cc(/C=C/c3ccc4[nH]ccc4c3)n[nH]2)ccc1OCc1ccccn1` yielded a melting point of 96 to 101 °C. Work on `O=[N+]([O-])c1c(NCC(O)CO)cccc1NCC(O)CO` (centres undefined) yielded a melting point of 138 °C. With `Cc1cccc(C(=O)Nc2ccc(N3CCN(Cc4ccc[nH]4)CC3)nc2)c1-c1ccc(C(C)C)cc1` the melting point was 130 °C. `CC(=O)c1ccc(N=C(C)c2ccccc2)cc1` showed a melting point of 205 °C. With `COC(=O)N=C1SCCN1Cc1ccc(Cl)nc1` the melting point was 128 to 130 °C. Compound `Cc1cc(C)cc(CN(C)C(=O)C(Cc2c[nH]c3ccccc23)NC(=O)c2ccccc2)c1` (centres undefined) has a melting point of 140 to 142 °C. `Clc1nc(-c2ccccc2)nc2c1Cc1ccccc1O2` showed a melting point of 168 to 170 °C. With `CC(C)(C#N)c1cc(O)cc2cc(-c3ccc(O)cc3)oc12` the melting point was 284 °C. With `COC(=O)c1cnc(N2CCNC2=O)s1` the melting point was 205 to 208 °C. With `O=C1CC(c2ccc(O)cc2)=Nc2ccc(N3CCCC3)cc21` the melting point was 304 to 306 °C.
